According to publication PMC6105845, “Nucleotide Prodrug Containing a Nonproteinogenic Amino Acid To Improve Oral Delivery of a Hepatitis C Virus Treatment” (Antimicrobial Agents and Chemotherapy, 2018):
In brackets after ≈: the same amount, converted by molar mass.

Key:
HCV GT1a replicon [1] = assay: HCV GT1a replicon, transiently transfected Huh-1C cells; assay type: cell-based, hepatitis C virus; conditions: for EC50: Hepatitis C virus, GT1A, 72 h
Procedure: (§1) GT1a, GT1b, and GT2a are authentic subgenomic replicons of the indicated strain. Creation of these HCV replicons was reported previously ([7]).
RNA was transcribed in vitro using a MEGAscript […] kit (Ambion, Austin, TX) and transfected into Huh-Lunet and −1C cells using published methods ([21], [22]).
(§2) The EC50s, defined as the concentration at which there was a measured 50% decrease in HCV replicon level, were determined in replicon assay as previously described ([24]). Briefly, replicon cells were seeded into 96-well plates. Compounds were serially diluted in DMSO at 200× final concentrations and then added to the assay plate. Luciferase expression was quantified after 3 days of incubation using a commercial luciferase assay (Promega, Madison, WI). Data were analyzed using GraphPad Prism 6.0 (La Jolla, CA).
(§3) X represents log of compound concentration and Y represents replicon replication as the percentage of DMSO control. EC50s were calculated as an average from at least three independent experiments.

HCV GT1a replicon [2] = assay: HCV GT1a replicon, stably transfected Huh-Lunet cells; assay type: cell-based, hepatitis C virus; conditions: for EC50: Hepatitis C virus, 72 h, stably transfected Huh-Lunet cells, 3 days
Procedure: (§4) Primary hepatocytes from humans, hamsters, dogs, and monkeys were purchased from BioreclamationIVT in 12-well plates seeded at confluence (0.88 × 10^6 cells/well). Huh-Lunet cells were obtained from ReBlikon GmbH (Mainz, Germany) ([19]). Huh-1C was derived from a GT1a replicon clone in which HCV replication was cured. All Huh-Lunet- and Huh-1C-based replicon cell lines were cultured in Dulbecco's modified Eagles' medium (DMEM) with GlutaMAX (Invitrogen, Carlsbad, CA) supplemented with 10% fetal bovine serum (FBS; HyClone, Logan, UT) and 100 U/ml penicillin (Invitrogen). Replicon cell lines containing genotype 1a (H77) and 2a (JFH1) were created as previously reported ([20][–][22]). Caco-2 cells were maintained in DMEM with sodium pyruvate, GlutaMAX supplemented with 1% penicillin-streptomycin, 1% nonessential amino acids, and 10% FBS in an incubator set at 37°C, 90% humidity, and 5% CO2.
as §1, §2, §3

HCV GT1b replicon = assay: HCV GT1b replicon, stably transfected Huh-Lunet cells; assay type: cell-based, hepatitis C virus; conditions: for EC50: Hepatitis C virus, 72 h, stably transfected Huh-Lunet cells, 3 days
Procedure: as §4, §1, §2, §3

HCV GT2a replicon = assay: HCV GT2a replicon, stably transfected Huh-Lunet cells; assay type: cell-based, hepatitis C virus; conditions: for EC50: Hepatitis C virus, 72 h, stably transfected Huh-Lunet cells, 3 days
Procedure: as §4, §1, §2, §3

Kinetic solubility = assay type: physicochemical; conditions: 37 °C, kinetic from dmso stock
Procedure: The samples were incubated at 37°C for 1 h, followed by centrifugation at 2,800 relative centrifugal force (RCF) for 30 min at room temperature. Thermodynamic solubility was determined with the crystalline-free base of GS-6620 or amorphous GS2 using the shaking flask method. The concentrations of the compounds in supernatants were determined by HPLC.

[3] = Metabolic stability in intestinal S9 fraction, hamster; assay type: in vitro ADME
Procedure: (§5) Blood plasma and S9 stability was studied as described previously ([8]). In brief, the compounds were incubated at 2 μM in hamster, rat, dog, monkey, or human plasma samples for up to 4 h at 37°C. For S9 stability, the compounds were incubated at 2 μM in hamster, rat, dog, monkey, or human intestinal and hepatic S9 fractions for up to 90 min at 37°C in the presence of NADPH and uridine 5′-diphosphoglucuronic acid trisodium salt (UDPGA) (Sigma-Adrich). The samples were analyzed by liquid chromatography coupled to triple-quadrupole mass spectrometry (LC-MS/MS).
(§6) The data (analyte-to-internal standard peak area ratio) were plotted on a semilog scale and fitted using an exponential fit. The half-life (t1/2) was determined assuming first-order kinetics.

[4] = Metabolic stability in intestinal S9 fraction, rat; assay type: in vitro ADME
Procedure: as §5, §6

[5] = Metabolic stability in intestinal S9 fraction, dog; assay type: in vitro ADME
Procedure: as §5, §6

[6] = Metabolic stability in intestinal S9 fraction, human; assay type: in vitro ADME; conditions: for half-life at 2 μM: intestinal S9 fraction
Procedure: as §5, §6

[7] = Metabolic stability in hepatic S9 fraction, hamster; assay type: in vitro ADME; conditions: 2 μM
Procedure: as §5, §6

[8] = Metabolic stability in hepatic S9 fraction, rat; assay type: in vitro ADME; conditions: 2 μM
Procedure: as §5, §6

[9] = Metabolic stability in hepatic S9 fraction, human; assay type: in vitro ADME; conditions: 2 μM
Procedure: as §5, §6

in vitro = in vitro ADME; conditions: 37°C, read-out: Plasma stability, half-life
Procedure: as §5, §6

CES1 = biological target: T1, CES1 (Homo sapiens, UniProt P23141); assay: Ester cleavage by CES1; assay type: biochemical
T1 construct: purchased R&D Systems (Minneapolis, MN)
T1 sequence (P23141 18-567): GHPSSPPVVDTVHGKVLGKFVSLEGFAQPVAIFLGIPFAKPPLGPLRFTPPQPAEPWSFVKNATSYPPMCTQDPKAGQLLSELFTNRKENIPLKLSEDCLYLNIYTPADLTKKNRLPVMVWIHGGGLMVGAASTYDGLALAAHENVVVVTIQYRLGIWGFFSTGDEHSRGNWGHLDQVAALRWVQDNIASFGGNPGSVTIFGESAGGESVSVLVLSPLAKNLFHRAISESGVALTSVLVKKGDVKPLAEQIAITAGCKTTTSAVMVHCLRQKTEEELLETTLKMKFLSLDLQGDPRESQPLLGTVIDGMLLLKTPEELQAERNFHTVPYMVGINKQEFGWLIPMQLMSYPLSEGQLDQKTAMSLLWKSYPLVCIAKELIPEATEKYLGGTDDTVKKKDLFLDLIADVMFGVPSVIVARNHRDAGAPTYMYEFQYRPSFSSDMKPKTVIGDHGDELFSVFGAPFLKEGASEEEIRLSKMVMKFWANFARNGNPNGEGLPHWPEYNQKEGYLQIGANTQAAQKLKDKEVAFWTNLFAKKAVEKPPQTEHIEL
Procedure: Biochemical assays studying prodrug cleavage have been described previously ([8]). In brief, the cleavages of GS2 by CATA, CES1, CES2, and HINT1 were assessed in vitro. The reaction substrates and products were monitored over time by high-performance liquid chromatography (HPLC).

[10] = 0.1 N HCl, simulated gastric fluid, HCl (pH 1.0)
[11] = CES1, GS-6620-containing diastereomeric mixture was used

Structure (SMILES)	EC50 (HCV GT1a replicon [1])	EC50 (HCV GT1a replicon [2])	EC50 (HCV GT1b replicon)	EC50 (HCV GT2a replicon; GT2a)	solubility kinetic at 1 h (Kinetic solubility; [10])	solubility kinetic at 1 h (Kinetic solubility; aqueous buffer, PBS (pH 7.0))	half-life at 2 μM [3]	half-life at 2 μM [4]	half-life at 2 μM [5]	half-life at 2 μM [6]	Metabolic stability in hepatic S9 fraction, predicted hepatic extraction [7]	Metabolic stability in hepatic S9 fraction, predicted hepatic extraction [8]	Metabolic stability in hepatic S9 fraction, predicted hepatic extraction [9]	half-life at 2 μM (in vitro; dog plasma)	half-life at 2 μM (in vitro; hamster plasma)	half-life at 2 μM (in vitro; human plasma)	half-life at 2 μM (in vitro; monkey (cynomolgus) plasma)	half-life at 2 μM (in vitro; rat plasma)	Amidate ester cleavage, specific activity (CES1; [11])	further results
CC(C)OC(=O)[C@H](C)N[P@](=O)(OC[C@H]1O[C@@](C#N)(c2ccc3c(N)ncnn23)[C@](C)(O)[C@@H]1OC(=O)C(C)C)Oc1ccccc1 [GS-6620, reference compound]	41 ± 19 nM	110 ± 50 nM	300 ± 140 nM	500 ± 160 nM	87 µM (≈ 56.1 µg/mL)	46 µM (≈ 29.7 µg/mL)	< 0.0333 h	0.147 h	0.55 h	0.283 h	97%	97%	93%	7.17 h	2 h	6.17 h	1.33 h	< 0.0333 h	1.9 pmol/min/µg	difference in activity across the 2a replicons (HCV GT2a replicon; Huh-Lunet vs Huh-1C 2a replicons): ≤ 19 fold; 3′-Ester cleavage, specific activity (CES1; [11]): 1.6 pmol/min/µg
CC(C)OC(=O)C(C)(C)N[P@](=O)(OC[C@H]1O[C@@](C#N)(c2ccc3c(N)ncnn23)[C@](C)(O)[C@@H]1O)Oc1ccccc1 [GS2]	140 ± 60 nM	380 ± 150 nM	2200 nM	25000 nM	> 100 µM	> 100 µM	1.12 h	2.83 h	9.17 h	9.5 h	93%	86%	87%	> 10 h	> 10 h	> 10 h	> 10 h	0.0833 h	91.0 pmol/min/µg	Fold (GS2/GS-6620) (HCV GT1a replicon [1]; EC50 ratio, GT1a, Huh-1C): 3.5; Fold (GS2/GS-6620) (HCV GT1a replicon [2]; EC50 ratio, Huh-Lunet): 3.5; Fold (GS2/GS-6620) (HCV GT1b replicon; EC50 ratio, Huh-Lunet): 7.2; Fold (GS2/GS-6620) (HCV GT2a replicon; EC50 ratio, GT2a, Huh-Lunet): 50; stability in human intestinal S9 greater than GS-6620 [6]: 35 fold; CES1 hydrolysis more efficient than GS-6620 (CES1; isopropyl ester cleavage): 48 fold
